The values that follow come from ChEMBL document CHEMBL4627251, “Identification of potent pyrazole based APELIN receptor (APJ) agonists” (Bioorg Med Chem, 2020).

In experiment [1] the target is T1, Type-1 angiotensin II receptor (Homo sapiens, UniProt P30556).
T1 sequence (P30556 whole entry): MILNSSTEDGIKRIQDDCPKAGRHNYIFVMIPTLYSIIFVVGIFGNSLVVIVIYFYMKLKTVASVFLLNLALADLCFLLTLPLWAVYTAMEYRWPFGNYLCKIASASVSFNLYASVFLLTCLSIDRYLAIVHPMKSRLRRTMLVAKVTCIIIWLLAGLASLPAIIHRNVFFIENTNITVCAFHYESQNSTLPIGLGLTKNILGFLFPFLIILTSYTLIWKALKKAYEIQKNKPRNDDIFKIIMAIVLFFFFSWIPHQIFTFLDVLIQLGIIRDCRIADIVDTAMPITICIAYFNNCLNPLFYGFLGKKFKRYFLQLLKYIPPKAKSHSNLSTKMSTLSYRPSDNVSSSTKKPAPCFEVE
The experiment in a line: Agonist activity at human AGTR1 stably expressed in CHO cells assessed as increase in intracellular calcium mobilization measured at 1 sec intervals for 90 sec by calcium 5 dye based FLIPR assay. The experiment is classed as functional, cell-based. On the technique in general: A change in cytosolic calcium serves as a functional read-out for many receptors and channels.

Experiment [2] has as its target T2, Apelin receptor (Homo sapiens, UniProt P35414).
T2 sequence (P35414 whole entry): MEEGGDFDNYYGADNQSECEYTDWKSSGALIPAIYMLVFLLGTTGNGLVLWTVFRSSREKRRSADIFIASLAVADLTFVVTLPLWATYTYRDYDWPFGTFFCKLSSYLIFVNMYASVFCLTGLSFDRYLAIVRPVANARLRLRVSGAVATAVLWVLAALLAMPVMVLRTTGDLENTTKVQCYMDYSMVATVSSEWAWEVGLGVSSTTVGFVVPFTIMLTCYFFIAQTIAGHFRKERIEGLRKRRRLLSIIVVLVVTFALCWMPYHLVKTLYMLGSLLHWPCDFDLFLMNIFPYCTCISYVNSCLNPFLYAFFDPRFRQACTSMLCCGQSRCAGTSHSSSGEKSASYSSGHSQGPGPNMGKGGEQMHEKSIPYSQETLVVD
Description: Agonist activity at human APJ receptor stably expressed in CHO cells assessed as inhibition of forskolin-induced cAMP accumulation measured after 30 mins by Eu-cAMP tracer based TR-FRET assay

Experiment [3] addresses T2, Apelin receptor. This is another data set of the same source.
Description: Agonist activity at human APJ receptor stably expressed in CHOK1 cells assessed as induction of beta-arrestin 2 recruitment incubated for 90 mins by PathHunter assay
The target in experiment [4] is T2, Apelin receptor. This is another data set of the same source.
Description: Agonist activity at human APJ receptor stably expressed in CHO cells co-expressing Galphaq16 assessed as increase in intracellular calcium mobilization measured at 1 sec intervals for 90 secs by calcium 5 dye based FLIPR assay

In the case of `COC(=O)CN(C)C(=O)[C@H](CCc1ccccc1)NC(=O)c1cc(-c2c(OC)cccc2OC)n(CC(C)C)n1`, the EC50 in experiment [1] was greater than 10 µM. Same read-out and setting: under `COc1cccc(OC)c1-c1cc(C(=O)N[C@@H](CCC2CCCCC2)CC(=O)NC2CCC2)nn1C1CCCC1` stands greater than 10 µM; under `COc1cccc(OC)c1-c1cc(C(=O)N[C@@H](CCC2CCCCC2)CC(=O)NC2CCC2)nn1CC(C)C`, greater than 10 µM; under `CC[C@@H](O)CNC(=O)C[C@H](CCC1CCCCC1)NC(=O)c1cc(-c2c(OC)cccc2OC)n(CC(C)C)n1`, greater than 10 µM. With `CCC(O)CNC(=O)C[C@H](CCC1CCCCC1)NC(=O)c1cc(-c2c(OC)cccc2OC)n(CC(C)C)n1` (some centres undefined), the concentration giving a half-maximal response (EC50) in experiment [1] is greater than 10 µM. Still for that read-out and setting: under `CCCn1nc(C(=O)N[C@@H](CCC2CCCCC2)CC(=O)NC2CCC2)cc1-c1c(OC)cccc1OC` stands greater than 10 µM; under `CCC(=O)CNC(=O)C[C@H](CCC1CCCCC1)NC(=O)c1cc(-c2c(OC)cccc2OC)n(CC(C)C)n1`, greater than 10 µM. For the compound `CCC(=O)CNC(=O)[C@H](CCc1ccccc1)NC(=O)c1cc(-c2c(OC)cccc2OC)n(CC(C)C)n1`, the EC50 in experiment [1] is greater than 10 µM. Take `COc1cccc(OC)c1-c1cc(C(=O)N[C@@H](CCC2CCCCC2)CC(=O)NC2CCC2)nn1C1CCCCC1`: the EC50 in experiment [1] was greater than 10 µM.

Regarding `COc1cccc(OC)c1-c1cc(C(=O)N[C@@H](CCc2ccccc2)CC(=O)O)nn1CC(C)C`, the concentration for a half-maximal effect (EC50) on Apelin receptor [2], at Apelin receptor [3] and on Apelin receptor [4] was greater than 10 µM throughout. As for `COc1cccc(OC)c1-c1cc(C(=O)N[C@@H](CCC2CCCCC2)CC(=O)O)nn1-c1ccc(F)cc1`, the concentration for a half-maximal effect (EC50) in experiment [1] was greater than 10 µM. For `COc1cccc(OC)c1-c1cc(C(=O)N[C@@H](CCc2ccccc2)CC(=O)NC2CCC2)nn1CC(C)C`, in experiment [1], the EC50 is greater than 10 µM.

As usually defined, the EC50 is the concentration needed to bring the measured effect to its halfway point.
